Experimental data from ChEMBL document CHEMBL4706559, “New indolylarylsulfone non-nucleoside reverse transcriptase inhibitors show low nanomolar inhibition of single and double HIV-1 mutant strains” (Eur J Med Chem, 2020).

Tests used:
[1] = system: Human immunodeficiency virus 1; experiment: Antiviral activity against HIV-1 NL4-3 infected in human MT-4 cells assessed as virus induced cytopathic effect by MTT assay; format: functional, organism-based; conditions: Human immunodeficiency virus 1, NL4-3, MT4
[2] = Cytotoxicity against human MT-4 cells assessed as reduction in cell viability by MTT assay; format: cell-based, MT4
[3] = Selectivity ratio of CC50 for human MT4 cells to EC50 for antiviral activity against HIV-1 NL4-3 infected in human MT4 cells; format: toxicity, cell-based; conditions: read-out: Ratio CC50/EC50
[4] = system: Human immunodeficiency virus 1; experiment: Antiviral activity against HIV1 harboring RT K103N mutant infected in human MT4 cells assessed as protection against virus-induced cytopathic effect by MTT assay; format: functional, organism-based; conditions: Human immunodeficiency virus 1, MT4
[5] = system: Human immunodeficiency virus 1; experiment: Antiviral activity against HIV1 harboring RT Y181C mutant infected in human MT4 cells assessed as protection against virus-induced cytopathic effect by MTT assay; format: functional, organism-based; conditions: Human immunodeficiency virus 1, MT4
[6] = system: Human immunodeficiency virus 1; experiment: Antiviral activity against HIV1 harboring RT K103N/Y181C double mutant infected in human MT4 cells assessed as protection against virus-induced cytopathic effect by MTT assay; format: functional, organism-based; conditions: Human immunodeficiency virus 1, MT4
[7] = system: Human immunodeficiency virus 1; experiment: Resistance index, ratio of EC50 for antiviral activity against HIV1 harboring RT K103N/Y181C double mutant infected in human MT4 cells to EC50 for antiviral activity against HIV1 NL4-3 infected in human MT4 cells; format: functional
[8] = Inhibition of RNA-dependent DNA polymerase activity of recombinant HIV-1 p66/p51 reverse transcriptase Y188L mutant assessed as inhibition of [3H]dTTP incorporation using poly(rA)/oligo(dT) as templates incubated for 15 mins by MicroBeta scintillation counting method; design: species or system Human immunodeficiency virus 1
[9] = Inhibition of RNA-dependent DNA polymerase activity of recombinant HIV-1 p66/p51 reverse transcriptase K103N/Y181C mutant assessed as inhibition of [3H]dTTP incorporation using poly(rA)/oligo(dT) as templates incubated for 15 mins by MicroBeta scintillation counting method; design: species or system Human immunodeficiency virus 1
[10] = molecular target: Human immunodeficiency virus type 1 reverse transcriptase (Human immunodeficiency virus 1) (UniProt Q72547); experiment: Inhibition of wild type HIV1 p66/p51 reverse transcriptase assessed as apparent Vmax at 150 nM using 10 to 500 uM poly(rA)/oligo(dT) as templates in presence of fixed concentration of [3H]dTTP by Michaelis-Menten analysis (reference value: 10 +/- 0.5%)
[11] = system: Human immunodeficiency virus 1; experiment: Inhibition of HIV1 p66/p51 reverse transcriptase K103N/Y181C double mutant assessed as apparent Vmax at 150 nM using 10 to 500 uM poly(rA)/oligo(dT) as templates in presence of fixed concentration of [3H]dTTP by Michaelis-Menten analysis (reference value: 12 +/- 1%)
[12] = system: Human immunodeficiency virus 1; experiment: Inhibition of HIV1 p66/p51 reverse transcriptase K103N/Y181C double mutant assessed as apparent Km of substrate at 150 nM using […] as templates in presence of fixed concentration of [3H]dTTP by Michaelis-Menten analysis (reference value: 106+/- 16 nM)
[13] = system: Human immunodeficiency virus 1; experiment: Inhibition of HIV1 p66/p51 reverse transcriptase K103N/Y181C double mutant assessed as apparent Vmax at 75 nM using fixed concentration of poly(rA)/oligo(dT) as templates in presence of 2 to 100 uM of [3H]dTTP by Michaelis-Menten analysis (reference value: 9.6 +/- 0.4%)
[14] = system: Human immunodeficiency virus 1; experiment: Inhibition of HIV1 p66/p51 reverse transcriptase K103N/Y181C double mutant assessed as apparent Km of substrate at 75 nM using fixed concentration of poly(rA)/oligo(dT) as templates in presence of 2 to 100 uM of [3H]dTTP by Michaelis-Menten analysis (reference value: 9.2 +/- 1.4 uM)
[15] = system: Human immunodeficiency virus 1; experiment: Inhibition of HIV1 p66/p51 reverse transcriptase K103N/Y181C double mutant assessed as apparent Km of substrate at 150 nM using fixed concentration of poly(rA)/oligo(dT) as templates in presence of 2 to 100 uM of [3H]dTTP by Michaelis-Menten analysis (reference value: 9.2 +/- 1.4 uM)
[16] = system: Human immunodeficiency virus 1; experiment: Binding affinity to free form of HIV-1 p66/p51 reverse transcriptase K103N/Y181C double mutant assessed as association constant using poly(rA)/oligo(dT) as templates in presence of [3H]dTTP
[17] = system: Human immunodeficiency virus 1; experiment: Binding affinity to HIV-1 p66/p51 reverse transcriptase K103N/Y181C double mutant/nucleic acid binary complex assessed as association constant using poly(rA)/oligo(dT) as templates in presence of [3H]dTTP
[18] = molecular target: Human immunodeficiency virus type 1 reverse transcriptase (Human immunodeficiency virus 1) (UniProt Q72547); experiment: Binding affinity to free form of wild type HIV-1 p66/p51 reverse transcriptase assessed as dissociation constant using poly(rA)/oligo(dT) as templates in presence of [3H]dTTP
[19] = system: Human immunodeficiency virus 1; experiment: Binding affinity to free form of HIV-1 p66/p51 reverse transcriptase K103N/Y181C double mutant assessed as dissociation constant using poly(rA)/oligo(dT) as templates in presence of [3H]dTTP
[20] = system: Human immunodeficiency virus 1; experiment: Binding affinity to HIV-1 p66/p51 reverse transcriptase K103N/Y181C double mutant/nucleic acid binary complex assessed as dissociation constant using poly(rA)/oligo(dT) as templates in presence of [3H]dTTP
[21] = system: Human immunodeficiency virus 1; experiment: Synergistic inhibition of wild type HIV-1 p66/p51 reverse transcriptase assessed as combination index using poly(rA)/oligo(dT) as templates in presence of [3H]dTTP preincubated enzyme with nucleic acid followed by addition of AZTTP and subsequent incubation with compound and dTTP
[22] = system: Human immunodeficiency virus 1; experiment: Synergistic inhibition of HIV-1 p66/p51 reverse transcriptase K103N/Y181C double mutant assessed as combination index using poly(rA)/oligo(dT) as templates in presence of [3H]dTTP preincubated enzyme with nucleic acid followed by addition of AZTTP and subsequent incubation with compound and dTTP
[23] = molecular target: Human immunodeficiency virus type 1 reverse transcriptase (Human immunodeficiency virus 1) (UniProt Q72547); experiment: Ratio of Koff of wild type HIV-1 p66/p51 reverse transcriptase/nucleic acid binary complex to Koff of free form of wild type HIV-1 p66/p51 reverse transcriptase using poly(rA)/oligo(dT) as templates in presence of [3H]dTTP
[24] = molecular target: Human immunodeficiency virus type 1 reverse transcriptase (Human immunodeficiency virus 1) (UniProt Q72547); experiment: Ratio of Koff of wild type HIV-1 p66/p51 reverse transcriptase/nucleic acid binary complex to Koff of wild type HIV-1 p66/p51 reverse transcriptase/nucleic acid/dTTP ternary complex using poly(rA)/oligo(dT) as templates in presence of [3H]dTTP
[25] = system: Human immunodeficiency virus 1; experiment: Ratio of Kon of HIV-1 p66/p51 reverse transcriptase K103N/Y181C double mutant/nucleic acid/dTTP ternary complex to Kon of free form of HIV-1 p66/p51 reverse transcriptase using poly(rA)/oligo(dT) as templates in presence of [3H]dTTP
[26] = system: Human immunodeficiency virus 1; experiment: Ratio of Koff of HIV-1 p66/p51 reverse transcriptase K103N/Y181C double mutant/nucleic acid/dTTP ternary complex to Koff of HIV-1 p66/p51 reverse transcriptase/nucleic acid binary complex using poly(rA)/oligo(dT) as templates in presence of [3H]dTTP

`Cc1cc(C)cc(S(=O)(=O)c2c(C(=O)NCc3ccccc3O)[nH]c3ccc(Cl)cc23)c1` showed an EC50 [1] of under 0.0007 µM, a CC50 [2] of 23.8 µM and a selectivity ratio [3] of over 39700. For the same compound, the EC50 [4] was under 0.0007 µM, the EC50 [5] was under 0.0007 µM and the EC50 [6] was 0.0062 µM. For the same compound, the “Ratio EC50” value [7] was over 8.8, the IC50 [8] was 0.061 µM and the IC50 [9] was 0.076 µM. It also gave a Vmax(app) [10] of 1.2%, a Vmax(app) [11] of 6% and a Km [12] of 0.125 µM. The Vmax(app) [13] was 6.2%, the Km [14] was 5.8 µM and the Km [15] was 2.2 µM. The K [16] was 10 10^-5/nM/s, the K [17] was 10 10^-5/nM/s and the K [18] was 4 10^-3/s. The K [19] was 14 10^-3/s, the K [20] was 8 10^-3/s and the CI [21] was 0.75. The CI [22] was 0.6, the Ratio [23] was 8 and the Ratio [24] was 8. It also gave a Ratio [25] of 4 and a Ratio [26] of 4.
